Laboratory results taken from the NIST ThermoML archive (doi:10.1016/j.fluid.2013.06.038).
Numbers after ± are expanded uncertainties.

Conditions: Crystal; visual observation

Normal melting temperature: 71.7 ± 1.1 °C
Structure (SMILES): CC=CC(=O)O [2-butenoic acid]
